Measurements from patent US9173879B2, “Crystalline forms of (S)-7-([1,2,4]triazolo[1,5-a ]pyridin-6-yl)-4-(3,4-dichlorophenyl)-1,2,3,4-tetrahydroisoquinoline and use thereof” (Bristol-Myers Squibb Company, priority 2009, dated 2015).
Structures can show the parent of a compound that is named as a salt.

How the values were obtained:
[1] = Mouse tail suspension assay; format: in vivo; conditions: male Swiss Webster mice, acute administration
Method: Male Swiss Webster mice were housed 3-4 per cage in rooms maintained at a constant temperature (21-23° C.) and humidity (50±10%) on a 12-hour light/dark cycle. Animals had ad libitum access to water and food throughout studies. On the day of testing, they were brought into the testing room and allowed to acclimate for 1 hour. To begin testing, the tail was attached to a piece of tape which was then attached to a hook on the ceiling of a sound-attenuated chamber. Immobility was automatically recorded using the Med Associates software. Compounds were administered acutely at a fixed pretreatment interval before session.

DAT = assay: Occupancy assay, ex vivo binding in brain tissue, DAT; conditions: dose 1 mg/kg, time point 3 hour
Description: (§1) The general procedure for brain tissue collection and transporter occupancy assessment is briefly described as follows. Mice were sacrificed by asphyxiation in CO2, rats by decapitation and dogs by IV injection of euthanasia solution. For mice and rats, after the brains were removed from the skull, the forebrain tissue (removal of the brainstem and cerebellum) was used for SERT, NET, and DAT occupancy assessment. In dogs, the striatum was dissected for DAT occupancy and the remaining forebrain tissue (without the striatum, brainstem, and cerebellum) was used for SERT and NET occupancy assessment. The brain tissues were frozen in chilled isopentane and stored at −80° C. until homogenization.
(§2) The brain tissues were thawed and then homogenized using a polytron homogenizer (Kinematica). Sample aliquots were frozen immediately and stored at −80° C. Protein content was measured for each sample using a Coomassie protein assay kit (Pierce).
(§3) On the day of ex vivo binding for occupancy assessment, frozen sample aliquots were thawed and needle homogenized, and 100 μg of the tissue was incubated for SERT, NET, and DAT binding under assay conditions summarized in Table 1. […] Radioligand was measured using a Wallac Microbeta liquid scintillation counter.
(§4) The specific binding was calculated by subtracting the value of the non-specific binding from that of the total binding in each sample. […]

SERT = assay: Occupancy assay, ex vivo binding in brain tissue, SERT; conditions: dose 1 mg/kg, time point 3 hour
Description: as §1, §2, §3, §4

NET = assay: Occupancy assay, ex vivo binding in brain tissue, NET; conditions: dose 1 mg/kg, time point 3 hour
Description: as §1, §2, §3, §4

hSERT = hSERT (Homo sapiens (Human), UniProt P31645); assay: SERT radioligand binding assay ([125I]RTI-55, HEK-293 membranes)
Method: (§5) Recombinant HEK-293 cells expressing either the hSERT, hDAT, or hNET proteins were harvested from T-175 flasks as follows. The medium was removed from the flasks and the cells rinsed with HBSS without Ca and without Mg. The cells were then incubated for 5-10 minutes in 10 mM Tris-Cl, pH 7.5, 5 mM EDTA before the cells were lifted with a combination of pipetting and scraping, as needed. The cell suspension was collected into centrifuge bottles and homogenized for 30 seconds with a Polytron homogenizer. The suspension was centrifuged for 30 minutes at 32,000×g, 4° C. The supernatant was decanted and the pellet resuspended and homogenized in 50 mM Tris-Cl, pH 7.5, 1 mM EDTA for 10 seconds. The suspension was then centrifuged again for 30 minutes at 32,000×g, 4° C. The supernatant was decanted and the pellet resuspended in 50 mM Tris-Cl, pH 7.5, 1 mM EDTA and briefly homogenized. A Bradford assay (Bio-rad) was performed and the membrane preparation diluted to 2 mg/ml with 50 mM Tris-Cl, pH 7.5, 1 mM EDTA. […]
Compounds were dissolved in 100% DMSO at a concentration 100 times the desired highest assay concentration, serially diluted 1:3 in 100% DMSO, and 0.4 μl/well of each solution was dispensed to a Nunc polypropylene, round bottom, 384-well plate. […] The plates were air-dried overnight, 12 μl/well of MicroScint scintillation fluid added, and the plates counted in a Trilux. […]

hDAT = hDAT (Homo sapiens (Human), UniProt Q01959); assay: DAT radioligand binding assay ([125I]RTI-55, HEK-293 membranes)
Chain of hDAT (Q01959 whole entry): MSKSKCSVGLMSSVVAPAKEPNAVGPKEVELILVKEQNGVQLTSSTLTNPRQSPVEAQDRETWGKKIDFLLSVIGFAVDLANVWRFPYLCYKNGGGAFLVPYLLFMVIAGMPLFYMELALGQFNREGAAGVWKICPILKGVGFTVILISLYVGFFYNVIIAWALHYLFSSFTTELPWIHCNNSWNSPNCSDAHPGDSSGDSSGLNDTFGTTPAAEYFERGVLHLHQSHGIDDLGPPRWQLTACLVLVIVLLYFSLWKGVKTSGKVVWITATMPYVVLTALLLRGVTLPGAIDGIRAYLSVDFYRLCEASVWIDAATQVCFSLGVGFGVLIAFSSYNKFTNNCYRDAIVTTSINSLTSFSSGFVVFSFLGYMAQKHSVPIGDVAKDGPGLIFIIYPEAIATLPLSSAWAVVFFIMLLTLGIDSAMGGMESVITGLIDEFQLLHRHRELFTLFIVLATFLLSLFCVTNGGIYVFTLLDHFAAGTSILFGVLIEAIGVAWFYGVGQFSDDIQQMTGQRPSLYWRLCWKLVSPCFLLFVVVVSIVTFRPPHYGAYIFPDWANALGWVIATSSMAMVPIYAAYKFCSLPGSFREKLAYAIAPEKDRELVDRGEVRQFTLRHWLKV
Method: as §5, with “seconds.” for “seconds. The suspension was then centrifuged again for 30 minutes at 32,000×g, 4° C. The supernatant was decanted and the pellet resuspended in 50 mM Tris-Cl, pH 7.5, 1 mM EDTA and briefly homogenized. A Bradford assay (Bio-rad) was performed and the membrane preparation diluted to 2 mg/ml with 50 mM Tris-Cl, pH 7.5, 1 mM EDTA.”
Compounds were dissolved in 100% DMSO at a concentration 100 times the desired highest assay concentration, serially diluted 1:3 in 100% DMSO, and 0.4 μl/well of each solution was dispensed to a Nunc polypropylene, round bottom, 384-well plate. […] The plates were air-dried overnight, 12 μl/well of MicroScint scintillation fluid added, and the plates counted in a Trilux.
(§6) The raw data was normalized to percent inhibition using control wells defining 0% (DMSO only) and 100% (selective inhibitor) inhibition which were run on each plate. […] The radioligand concentration chosen for each assay corresponds to the Kd concentration determined through saturation binding analysis for each assay.

hNET = hNET (Homo sapiens (Human), UniProt P23975); assay: NET radioligand binding assay ([3H]nisoxetine, HEK-293 membranes)
Chain of hNET (P23975 whole entry): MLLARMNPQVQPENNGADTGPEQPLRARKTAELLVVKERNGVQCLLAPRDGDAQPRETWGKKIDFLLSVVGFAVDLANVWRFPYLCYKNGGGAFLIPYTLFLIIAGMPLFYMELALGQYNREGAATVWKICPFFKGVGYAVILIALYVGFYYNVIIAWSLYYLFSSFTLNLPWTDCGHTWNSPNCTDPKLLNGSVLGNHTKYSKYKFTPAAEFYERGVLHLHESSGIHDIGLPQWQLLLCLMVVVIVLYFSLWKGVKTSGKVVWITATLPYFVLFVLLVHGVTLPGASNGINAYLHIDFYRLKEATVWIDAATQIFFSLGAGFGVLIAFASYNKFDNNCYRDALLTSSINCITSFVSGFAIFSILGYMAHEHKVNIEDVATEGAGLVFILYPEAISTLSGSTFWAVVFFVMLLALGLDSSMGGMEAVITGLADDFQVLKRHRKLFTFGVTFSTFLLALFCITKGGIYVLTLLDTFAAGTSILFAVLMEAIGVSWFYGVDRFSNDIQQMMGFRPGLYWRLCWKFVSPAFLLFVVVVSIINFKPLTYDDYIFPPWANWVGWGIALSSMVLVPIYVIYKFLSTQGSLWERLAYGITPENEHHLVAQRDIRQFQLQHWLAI
Method: as §5, with “seconds.” for “seconds. The suspension was then centrifuged again for 30 minutes at 32,000×g, 4° C. The supernatant was decanted and the pellet resuspended in 50 mM Tris-Cl, pH 7.5, 1 mM EDTA and briefly homogenized. A Bradford assay (Bio-rad) was performed and the membrane preparation diluted to 2 mg/ml with 50 mM Tris-Cl, pH 7.5, 1 mM EDTA.”
Compounds were dissolved in 100% DMSO at a concentration 100 times the desired highest assay concentration, serially diluted 1:3 in 100% DMSO, and 1.0 μl/well of each solution was dispensed to a Nunc polypropylene, round bottom, 384-well plate. […] The plates were air-dried overnight, 12 μl/well of MicroScint scintillation fluid added, and the plates counted in a Trilux.
as §6

Which results are given for Clc1ccc(C2CNCc3cc(-c4ccc5ncnn5c4)ccc32)cc1Cl (single isomer, unassigned; (+)) [Example 1 (+)-enantiomer, (+)-7-([1,2,4]triazolo[1,5-a]pyridin-6-yl)-4-(3,4-dichlorophenyl)-1,2,3,4-tetrahydroisoquinoline, L-tartrate salt]?
minimum effective dose in the mouse tail suspension study [1]: 10 mg/kg; DAT Occupancy % (DAT): 26%; SERT Occupancy % (SERT): 75%; NET Occupancy % (NET): 11%

What does the source list for Clc1ccc(C2CNCc3cc(-c4ccc5ncnn5c4)ccc32)cc1Cl (single isomer, unassigned; enantiomer 7) [Example 1 (−)-enantiomer, 7-([1,2,4]triazolo[1,5-a]pyridin-6-yl)-4-(3,4-dichlorophenyl)-1,2,3,4-tetrahydroisoquinoline]?
DAT Occupancy % (DAT): 30%; SERT Occupancy % (SERT): 41%; NET Occupancy % (NET): 33%; IC50 (hSERT): 4.2 nM; IC50 (hDAT): 105 nM; IC50 (hNET): 4.8 nM
